Test results taken from US9187556B2, “SEMA5B peptides and vaccines including the same” (OncoTherapy Science, Inc., priority 2011, dated 2015).

Tests used:
peptide-pulsed T2 cells [1] = assay: IFN-gamma ELISPOT assay on CTLs induced with peptide-pulsed DCs; assay type: cell-based, human; settings: CTLs from HLA-A*0201 positive donor, compared to control wells
Excerpt: Monocyte-derived dendritic cells (DCs) were used as antigen-presenting cells to induce cytotoxic T lymphocyte (CTL) responses against peptides presented on human leukocyte antigen (HLA). DCs were generated in vitro as described elsewhere (Nakahara S et al., Cancer Res 2003 Jul. 15, 63(14): 4112-8). Specifically, peripheral blood mononuclear cells isolated from a normal volunteer (HLA-A*0201 positive) by Ficoll-Paque plus (Pharmacia) solution were separated by adherence to a plastic tissue culture dish (Becton Dickinson) so as to enrich them as the monocyte fraction. The monocyte-enriched population was cultured in the presence of 1000 U/ml of granulocyte-macrophage colony-stimulating factor (R&D System) and 1000 U/ml of interleukin (IL)-4 (R&D System) in AIM-V Medium (Invitrogen) containing 2% heat-inactivated autologous serum (AS). After 7 days of culture, the cytokine-induced DCs were pulsed with 20 micro g/ml of each of the synthesized peptides in the presence of 3 micro g/ml of beta 2-microglobulin for 3 hr at 37 degree C. in AIM-V Medium. The generated cells appeared to express DC-associated molecules, such as CD80, CD83, CD86 and HLA class II, on their cell surfaces (data not shown). These peptide-pulsed DCs were then inactivated by X ray-irradiated (20 Gy) and mixed at a 1:20 ratio with autologous CD8+ T cells, obtained by positive selection with CD8 Positive Isolation Kit (Dynal). These cultures were set up in 48-well plates (Corning); each well contained 1.5×10^4 peptide-pulsed DCs, 3×10^5 CD8+ T cells and 10 ng/ml of IL-7 (R&D System) in 0.5 ml of AIM-V/2% AS medium. Three days later, these cultures were supplemented with IL-2 (CHIRON) to a final concentration of 20 IU/ml. On day 7 and 14, the T cells were further stimulated with the autologous peptide-pulsed DCs. The DCs were prepared each time by the same way described above. CTLs were tested against peptide-pulsed T2 cells after the 3rd round of peptide stimulation on day 21 (Tanaka H et al., Br J Cancer 2001 Jan. 5, 84(1): 94-9; Umano Y et al., Br J Cancer 2001 Apr. 20, 84(8): 1052-7; Uchida N et al., Clin Cancer Res 2004 December 15, 10(24): 8577-86; Suda T et al., Cancer Sci 2006 May, 97(5): 411-9; Watanabe T et al., Cancer Sci 2005 August, 96(8): 498-506).
(§1) To examine specific CTL activity, interferon(IFN)-gamma enzyme-linked immunospot (ELISPOT) assay and IFN-gamma enzyme-linked immunosorbent assay (ELISA) were performed. Peptide-pulsed T2 (1×10^4/well) was prepared as stimulator cells. Cultured cells in 48-well plate, CTL lines and CTL clones were used as responder cells. IFN-gamma ELISPOT assay and IFN-gamma ELISA assay were performed under manufacture procedure.

peptide-pulsed T2 cells [2] = assay: IFN-gamma ELISA of expanded CTL lines; assay type: cell-based, human; settings: target cells pulsed with corresponding peptide vs without peptide pulse
Description: CTLs were expanded in culture using the method similar to the one described by Riddell et al. (Walter E A et al., N Engl J Med 1995 Oct. 19, 333(16): 1038-44; Riddell S R et al., Nat Med 1996 February, 2(2): 216-23). A total of 5×10^4 CTLs were suspended in 25 ml of AIM-V/5% AS medium with 2 kinds of human B-lymphoblastoid cell lines, inactivated by Mitomycin C, in the presence of 40 ng/ml of anti-CD3 monoclonal antibody (Pharmingen). One day after initiating the cultures, 120 IU/ml of IL-2 were added to the cultures. The cultures were fed with fresh AIM-V/5% AS medium containing 30 IU/ml of IL-2 on days 5, 8 and 11 (Tanaka H et al., Br J Cancer 2001 Jan. 5, 84(1): 94-9; Umano Y et al., Br J Cancer 2001 Apr. 20, 84(8): 1052-7; Uchida N et al., Clin Cancer Res 2004 Dec. 15, 10(24): 8577-86; Suda T et al., Cancer Sci 2006 May, 97(5): 411-9; Watanabe T et al., Cancer Sci 2005 August, 96(8): 498-506).
as §1

peptide-pulsed T2 cells [3] = assay: IFN-gamma ELISA of CTL clones established by limiting dilution; assay type: cell-based, human; settings: target cells pulsed with each peptide
Description: The dilutions were made to have 0.3, 1, and 3 CTLs/well in 96 round-bottomed micro titer plate (Nalge Nunc International). CTLs were cultured with 1×10^4 cells/well of 2 kinds of human B-lymphoblastoid cell lines, 30 ng/ml of anti-CD3 antibody, and 125 U/ml of IL-2 in a total of 150 micro 1/well of AIM-VMedium containing 5% AS. 50 micro 1/well of IL-2 were added to the medium 10 days later so to reach a final concentration of 125 U/ml IL-2. CTL activity was tested on the 14th day, and CTL clones were expanded using the same method as described above (Uchida N et al., Clin Cancer Res 2004 Dec. 15, 10(24): 8577-86; Suda T et al., Cancer Sci 2006 May, 97(5): 411-9; Watanabe T et al., Cancer Sci 2005 August, 96(8): 498-506).
as §1

[4] = tested on: COS7 cells transfected with SEMA5B and HLA-A*0201; assay: Specific CTL activity against target cells expressing SEMA5B and HLA-A*0201; assay type: cell-based, African green monkey
Description: as §1
The cDNA encoding an open reading frame of target genes or HLA-A*0201 was amplified by PCR. The PCR-amplified product was cloned into expression vector. The plasmids were transfected into COS7, which is HLA-A*0201-null cell line, using lipofectamine 2000 (Invitrogen) according to the manufacturer's recommended procedures. After 2 days from transfection, the transfected cells were harvested with versene (Invitrogen) and used as the stimulator cells (5×10^4 cells/well) for CTL activity assay.

Sequence | Peptide-specific CTL activity (IFN-gamma production) (peptide-pulsed T2 cells [1]) | IFN-gamma production of CTL lines (peptide-pulsed T2 cells [2]) | IFN-gamma production of CTL clones (peptide-pulsed T2 cells [3]) | CTL activity of CTL line against COS7 cells expressing both SEMA5B and HLA-A*0201 ([4]; COS7 transfected with both full length SEMA5B and HLA-A*0201) | CTL activity of CTL line against control COS7 cells ([4]; COS7 transfected with either full length SEMA5B or HLA-A*0201)
MVLAGPLAV [SEQ ID NO: 8, 9 mer peptide derived from SEMA5B, start position 59; typical negative case] | not shown specific IFN-gamma production | – | – | – | –
LIYGVFTTNV [SEQ ID NO: 34, 10 mer peptide derived from SEMA5B, start position 370] | potent IFN-gamma production | potent IFN-gamma production | Potent IFN-gamma production | – | –
LLPSLTLLV [SEQ ID NO: 5, 9 mer peptide derived from SEMA5B, start position 70] | potent IFN-gamma production | potent IFN-gamma production | Potent IFN-gamma production | – | –
LLLPSLTLLV [SEQ ID NO: 27, 10 mer peptide derived from SEMA5B, start position 69] | potent IFN-gamma production | potent IFN-gamma production | Potent IFN-gamma production | potent CTL activity | no significant specific CTL activity was detected
GLLTLAVYL [SEQ ID NO: 7, 9 mer peptide derived from SEMA5B, start position 1049] | potent IFN-gamma production | – | – | – | –
